This note sets out measurements from US10335409B2 (priority 2012, dated 2019).

Like-named read-outs stand apart in the source and are kept apart here.

For assay [1], the target named is HCV NS3 protease domain genotype 3a (Hepatitis C virus genotype 3a, UniProt Q81258). The assay is described as follows: Ki determination, NS3 protease genotype 3a (fluorogenic depsipeptide substrate). Format: biochemical. The note with it: 200 pM enzyme, NS4A peptide. In outline:
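The NS3 protease domain (aa 1-181) with 20 μM NS4A peptide was used at 50 pM with 4 μM substrate (1b) or at 200 pM with 2 μM substrate (3a). Inhibitors (100 nM-5 pM) were pre-incubated 1 h at room temperature in HEPES/glycerol/DTT buffer with 10% DMSO. Steady-state rates (90-120 min) gave Ki via the Morrison equation, corrected for active enzyme and [S]/Km.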

Assay [2] deals with genotype 1a (H77) stable HCV replicon in Huh-7-derived cells. Nature of the assay: Stable subgenomic HCV replicon EC50, genotype 1a (Renilla luciferase). Format: cell-based, hepatitis C virus. The note with it: stable replicon genotype 1a, 72 h, read-out: EC50 1A RLUC. In outline: (§1)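 Compounds, three-fold diluted, were applied to Huh-7-derived cells harbouring luciferase replicons (genotype 1a H77, 1b Con1, 2a JFH-1, 4a ED43, with strain-specific adaptive mutations). Seventy-two hours later, intracellular replication was gauged by Renilla luciferase activity and EC50 derived by regression.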

The test system of assay [3] is genotype 1b (Con1) stable HCV replicon in Huh-7-derived cells. Nature of the assay: Stable subgenomic HCV replicon EC50, genotype 1b (Renilla luciferase). The settings on record: stable replicon genotype 1b, 72 h, read-out: EC50 1B RLUC. Format: cell-based, hepatitis C virus. In outline:
as §1
On the technique in general: A replicon is a self-replicating genome or part of one, used to study replication in cells.

Assay [4] relates to genotype 2a (JFH-1) stable HCV replicon in Huh-7-derived cells. Nature of the assay: Stable subgenomic HCV replicon EC50, genotype 2a (Renilla luciferase). Format: cell-based, hepatitis C virus. The settings on record: stable replicon genotype 2a, 72 h, read-out: EC50 2A RLUC. A digest of the protocol:
as §1

Assay [5] relates to genotype 3a (S52) stable HCV replicon in Huh-7-derived cells. Nature of the assay: Stable subgenomic HCV replicon EC50, genotype 3a (Renilla luciferase). Format: cell-based, hepatitis C virus. The settings on record: 72 h, read-out: EC50 3A RLUC.
Assay [6] concerns genotype 4a (ED43) stable HCV replicon in Huh-7-derived cells. The assay is described as follows: Stable subgenomic HCV replicon EC50, genotype 4a (Renilla luciferase). Format: cell-based, hepatitis C virus. The settings on record: 72 h, read-out: EC50 4A RLUC. A digest of the protocol:
as §1

In assay [7] the test system is genotype 3a (S52) wild type transient HCV replicon in Huh-7-derived cells. Nature of the assay: Transient-transfected HCV replicon EC50, genotype 3a wild type. Format: cell-based, hepatitis C virus. The settings on record: transient-transfected replicon genotype 3a wild type, 72 h, read-out: EC50 3A WT.
The subject of assay [8] is genotype 1a (H77) wild type transient HCV replicon in Huh-7-derived cells. The assay is described as follows: Transient-transfected HCV replicon EC50, genotype 1a wild type. Format: cell-based, hepatitis C virus. The note with it: 72 h, transient-transfected replicon genotype 1a wild type, read-out: EC50 1A WT.
Assay [9] has as its system genotype 1a NS3/4a protease inhibitor resistant variant R155K transient HCV replicon in Huh-7-derived cells. The assay is described as follows: Transient-transfected HCV replicon EC50, genotype 1a R155K. Format: cell-based, hepatitis C virus. The settings on record: 72 h.
The test system of assay [10] is genotype 1b (Con1) wild type transient HCV replicon in Huh-7-derived cells. Nature of the assay: Transient-transfected HCV replicon EC50, genotype 1b wild type. Format: cell-based, hepatitis C virus. The note with it: 72 h, transient-transfected replicon genotype 1b wild type, read-out: EC50 1B WT.
Assay [11] deals with genotype 1b NS3/4a protease inhibitor resistant variant D168A transient HCV replicon in Huh-7-derived cells. The assay is described as follows: Transient-transfected HCV replicon EC50, genotype 1b D168A. The note with it: 72 h. Format: cell-based, hepatitis C virus.
Where [12] appears, read: Hepatitis C virus, read-out: EC50 1A R155K, transient-transfected replicon genotype 1a R155K resistant variant, 72 h.
Setting [13] is: Hepatitis C virus, read-out: EC50 1B D168A, transient-transfected replicon genotype 1b D168A resistant variant, 72 h.
The mark [14] stands for this setting: stable replicon genotype 3a, Renilla luciferase.
Where [15] appears, read: stable replicon genotype 4a, Renilla luciferase.
Setting [16] is: transient-transfected replicon genotype 1a R155K resistant variant, read-out: EC50 1A R155K.
Where [17] appears, read: transient-transfected replicon genotype 1b D168A resistant variant, read-out: EC50 1B D168A.

Chain of HCV NS3 protease domain genotype 3a (Q81258 whole entry, looked up, the tested form may be a part): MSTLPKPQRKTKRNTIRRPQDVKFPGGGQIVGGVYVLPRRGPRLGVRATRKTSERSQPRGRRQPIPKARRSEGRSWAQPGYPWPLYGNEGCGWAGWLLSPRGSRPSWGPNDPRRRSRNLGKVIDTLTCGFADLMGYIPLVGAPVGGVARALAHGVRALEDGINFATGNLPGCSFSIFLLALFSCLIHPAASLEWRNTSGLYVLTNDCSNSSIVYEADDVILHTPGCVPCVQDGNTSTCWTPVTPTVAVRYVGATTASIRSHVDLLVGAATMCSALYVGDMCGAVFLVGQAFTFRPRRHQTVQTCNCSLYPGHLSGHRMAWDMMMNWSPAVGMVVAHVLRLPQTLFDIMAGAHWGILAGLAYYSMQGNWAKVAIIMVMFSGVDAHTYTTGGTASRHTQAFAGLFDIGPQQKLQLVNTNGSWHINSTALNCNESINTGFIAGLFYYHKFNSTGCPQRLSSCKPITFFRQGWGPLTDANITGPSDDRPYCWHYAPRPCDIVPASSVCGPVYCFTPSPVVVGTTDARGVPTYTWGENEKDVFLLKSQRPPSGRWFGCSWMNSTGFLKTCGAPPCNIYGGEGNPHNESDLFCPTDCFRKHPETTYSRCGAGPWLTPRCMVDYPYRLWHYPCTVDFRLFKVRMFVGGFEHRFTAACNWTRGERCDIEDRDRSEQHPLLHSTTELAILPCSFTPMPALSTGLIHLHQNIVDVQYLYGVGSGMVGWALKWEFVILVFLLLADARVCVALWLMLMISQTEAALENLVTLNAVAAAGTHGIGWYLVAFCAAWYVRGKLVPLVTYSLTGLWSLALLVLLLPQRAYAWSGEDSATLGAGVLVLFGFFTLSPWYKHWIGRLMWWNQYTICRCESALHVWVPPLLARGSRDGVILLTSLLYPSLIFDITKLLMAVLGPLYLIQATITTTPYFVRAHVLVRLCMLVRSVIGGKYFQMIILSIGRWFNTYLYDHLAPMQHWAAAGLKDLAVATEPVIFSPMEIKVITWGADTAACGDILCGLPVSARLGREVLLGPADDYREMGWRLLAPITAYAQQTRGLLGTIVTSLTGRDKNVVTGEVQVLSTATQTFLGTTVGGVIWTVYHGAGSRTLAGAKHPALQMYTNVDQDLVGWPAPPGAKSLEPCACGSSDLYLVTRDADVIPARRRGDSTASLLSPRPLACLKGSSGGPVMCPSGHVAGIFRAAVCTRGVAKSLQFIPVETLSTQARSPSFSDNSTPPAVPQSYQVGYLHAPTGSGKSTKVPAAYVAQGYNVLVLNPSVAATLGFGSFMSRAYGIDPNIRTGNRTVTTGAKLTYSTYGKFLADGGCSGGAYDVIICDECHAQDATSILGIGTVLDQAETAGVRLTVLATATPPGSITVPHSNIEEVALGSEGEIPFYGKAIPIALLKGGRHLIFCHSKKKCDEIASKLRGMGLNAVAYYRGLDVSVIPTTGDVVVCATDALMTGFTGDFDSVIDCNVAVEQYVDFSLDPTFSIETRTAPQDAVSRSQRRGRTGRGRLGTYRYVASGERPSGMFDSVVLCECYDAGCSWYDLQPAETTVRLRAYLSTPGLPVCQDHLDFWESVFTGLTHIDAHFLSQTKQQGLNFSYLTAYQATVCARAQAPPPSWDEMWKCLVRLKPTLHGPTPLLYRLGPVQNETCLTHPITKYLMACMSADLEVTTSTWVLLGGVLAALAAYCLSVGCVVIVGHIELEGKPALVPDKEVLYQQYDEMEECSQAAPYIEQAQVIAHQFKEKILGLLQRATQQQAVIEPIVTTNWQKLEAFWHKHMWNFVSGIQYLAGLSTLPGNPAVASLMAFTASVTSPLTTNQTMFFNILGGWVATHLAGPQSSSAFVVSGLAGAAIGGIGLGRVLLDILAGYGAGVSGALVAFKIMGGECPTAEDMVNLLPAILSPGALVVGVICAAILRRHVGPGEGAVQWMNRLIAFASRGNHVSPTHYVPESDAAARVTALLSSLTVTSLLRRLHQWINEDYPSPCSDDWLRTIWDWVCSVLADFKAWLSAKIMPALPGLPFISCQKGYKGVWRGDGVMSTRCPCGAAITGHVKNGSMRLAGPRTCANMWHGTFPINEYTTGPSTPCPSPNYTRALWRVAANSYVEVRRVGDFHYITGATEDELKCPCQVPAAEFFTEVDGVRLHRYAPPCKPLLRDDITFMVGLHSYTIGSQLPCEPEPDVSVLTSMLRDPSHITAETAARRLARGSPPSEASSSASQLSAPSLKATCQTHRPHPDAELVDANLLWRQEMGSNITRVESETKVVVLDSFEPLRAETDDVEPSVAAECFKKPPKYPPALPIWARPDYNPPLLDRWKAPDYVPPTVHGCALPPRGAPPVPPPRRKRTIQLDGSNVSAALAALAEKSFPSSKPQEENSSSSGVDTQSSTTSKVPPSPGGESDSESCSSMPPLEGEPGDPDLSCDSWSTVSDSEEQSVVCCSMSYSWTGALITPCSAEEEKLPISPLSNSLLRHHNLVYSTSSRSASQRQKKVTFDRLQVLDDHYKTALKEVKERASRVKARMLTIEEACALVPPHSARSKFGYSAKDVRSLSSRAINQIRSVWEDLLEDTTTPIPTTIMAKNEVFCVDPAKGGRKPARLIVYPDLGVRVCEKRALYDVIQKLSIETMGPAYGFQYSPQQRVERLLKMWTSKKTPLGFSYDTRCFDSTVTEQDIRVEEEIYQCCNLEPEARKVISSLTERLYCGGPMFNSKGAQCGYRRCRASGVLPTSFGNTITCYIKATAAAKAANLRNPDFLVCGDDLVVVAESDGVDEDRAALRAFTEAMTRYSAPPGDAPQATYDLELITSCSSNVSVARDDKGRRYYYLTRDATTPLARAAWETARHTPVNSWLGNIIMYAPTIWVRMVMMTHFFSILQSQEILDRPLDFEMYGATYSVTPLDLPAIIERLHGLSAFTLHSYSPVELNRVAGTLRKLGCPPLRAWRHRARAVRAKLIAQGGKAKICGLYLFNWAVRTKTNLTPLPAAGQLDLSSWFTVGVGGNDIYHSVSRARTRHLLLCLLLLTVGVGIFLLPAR

In the case of `COc1ccc2nc3c(nc2c1)O[C@H]1CN(C(=O)[C@H](C(C)(C)C)NC(=O)O[C@@H]2C[C@H]2CCCCC3(F)F)[C@H](C(=O)N[C@]2(C(=O)NS(=O)(=O)C3(C)CC3)C[C@H]2C(F)F)[C@@H]1C` [Example 46, (1aR,5S,8S,9S,10R,22aR)-5-tert-butyl-N-[(1R,2R)-2-(difluoromethyl)-1-{[(1-methylcyclopropyl)sulfonyl]carbamoyl}cyclopropyl]-18,18-difluoro-14-methoxy-9-methyl-3,6-dioxo-1,1a,3,4,5,6,9,10,18,19,20,21,22,22a-tetradecahydro-8H-7,10-methanocyclopropa[18,19][1,10,3,6]dioxadiazacyclononadecino[11,12-b]quinoxaline-8-carboxamide], in assay [1], the Ki – broadly, the equilibrium dissociation constant of an inhibitor or competing ligand from its target – came out at 0.05 nM. Further, the EC50 (usually the midpoint of the concentration-response curve) in assay [2] (Hepatitis C virus) came out at 3.1 nM; in [3] (Hepatitis C virus) it was 2.7 nM; in [4] (Hepatitis C virus), 3.8 nM; in assay [5] (Hepatitis C virus), 17 nM; in [6] (Hepatitis C virus), 2.5 nM; in assay [7] (Hepatitis C virus) it was 6.79 nM. The EC50 in [8] (Hepatitis C virus) was 2.4 nM; in assay [9] (setting [12]) it was 3.2 nM; in assay [10] (Hepatitis C virus) it was 1.2 nM; in [11] (setting [13]), 4.5 nM.

`CC[C@@H]1[C@@H]2CN(C(=O)[C@H](C(C)(C)C)NC(=O)O[C@@H]3C[C@H]3CCCC3CC3c3nc4ccc(OC)cc4nc3O2)[C@@H]1C(=O)N[C@]1(C(=O)NS(=O)(=O)C2(C)CC2)C[C@H]1C(F)F` (stereo partly drawn) [Example 36, (1aR,5S,8S,9S,10R,21aR)-5-tert-butyl-N-[(1R,2R)-2-(difluoromethyl)-1-{[(1-methylcyclopropyl)sulfonyl]carbamoyl}cyclopropyl]-9-ethyl-14-methoxy-3,6-dioxo-1a,3,4,5,6,9,10,17b,18,18a, 19,20,21,21a-tetradecahydro-1H,8H-7,10-methanodicyclopropa[13,14:18,19][1,10,3,6]dioxadiazacyclononadecino[11,12-b]quinoxaline-8-carboxamide] gave an inhibition constant Ki in assay [1] of 1.7 nM. The 50% effective concentration (EC50) in [2] (Hepatitis C virus) worked out at 23 nM; in assay [3] (Hepatitis C virus) it was 14 nM; in assay [4] (Hepatitis C virus), 53 nM; in assay [5] (Hepatitis C virus) it was 585 nM; in assay [6] (Hepatitis C virus), 9.1 nM; in assay [7] (Hepatitis C virus), 128 nM. Also, the EC50 in [8] (Hepatitis C virus) was 16 nM; in assay [9] (setting [12]), 271 nM; in [10] (Hepatitis C virus) it was 9.4 nM; in assay [11] (setting [13]), 333 nM.

In assay [1], `CC[C@@H]1[C@@H]2CN(C(=O)[C@H](C(C)(C)C)NC(=O)O[C@@H]3C[C@H]3CC/C=C/C(F)(F)c3nc4ccc(OC)cc4nc3O2)[C@@H]1C(=O)N[C@]1(C(=O)NS(=O)(=O)C2(C)CC2)C[C@H]1C(F)F` [Example 89] registered a Ki of 0.05 nM. The EC50 in [2] was 6 nM; in assay [3], 6.1 nM; in assay [4] it was 4.3 nM; in assay [5] (setting [14]) it was 19 nM; in [6] (setting [15]), 4.6 nM; in assay [7], 5.5 nM. For the same compound, the half-maximal effective concentration (EC50) in [8] was found to be 6 nM; in assay [9] (setting [16]), 3.7 nM; in assay [10], 3.2 nM; in assay [11] (setting [17]), 5.1 nM.

In [1], `CC[C@@H]1[C@@H]2CN(C(=O)[C@H](C(C)(C)C)NC(=O)O[C@@H]3C[C@H]3CCCCCc3nc4ccc(OC)cc4nc3O2)[C@@H]1C(=O)N[C@]1(C(=O)NS(=O)(=O)C2(C)CC2)C[C@H]1C(F)F` [Example 1, (1aR,5S,8S,9S,10R,22aR)-5-tert-butyl-N-[(1R,2R)-2-(difluoromethyl)-1-{[(1-methylcyclopropyl)sulfonyl]carbamoyl}cyclopropyl]-9-ethyl-14-methoxy-3,6-dioxo-1,1a,3,4,5,6,9,10,18,19,20,21,22,22a-tetradecahydro-8H-7,10-methanocyclopropa[18,19][1,10,3,6]dioxadiazacyclononadecino[11,12-b]quinoxaline-8-carboxamide] gave an inhibition constant (Ki) of 0.07 nM. Besides, the concentration giving a half-maximal response (EC50) in assay [2] (Hepatitis C virus) worked out at 4.4 nM; in assay [3] (Hepatitis C virus), 3.9 nM; in assay [4] (Hepatitis C virus), 4.1 nM; in [5] (Hepatitis C virus) it was 46 nM; in [6] (Hepatitis C virus), 3.1 nM; in assay [7] (Hepatitis C virus), 17 nM. Also, the EC50 in assay [8] (Hepatitis C virus) was 3.2 nM; in [9] (setting [12]) it was 4.9 nM; in assay [10] (Hepatitis C virus), 2.2 nM; in [11] (setting [13]), 17 nM.

Compound `CC[C@@H]1[C@@H]2CN(C(=O)[C@H](C(C)(C)C)NC(=O)O[C@@H]3CCCC[C@H]3CCCCCc3nc4ccc(OC)cc4nc3O2)[C@@H]1C(=O)N[C@]1(C(=O)NS(=O)(=O)C2CC2)C[C@H]1C(F)F` [Example 66, (4aR,8S,11 S,12S,13R,25aR)-8-tert-butyl-N-[(1R,2R)-1-[(cyclopropylsulfonyl)carbamoyl]-2-(difluoromethyl)cyclopropyl]-12-ethyl-17-methoxy-6,9-dioxo-2,3,4,4a,6,7,8,9,12,13,21,22,23,24,25,25a-hexadecahydro-1H,11H-10,13-methanoquinoxalino[2,3-k][1,10,3,6]benzodioxadiazacyclononadecine-11-carboxamide] returned an inhibitory constant (Ki) in assay [1] of 0.06 nM. Also, the EC50 is 37 nM in assay [2] (Hepatitis C virus); 20 nM in assay [3] (Hepatitis C virus); 105 nM in assay [4] (Hepatitis C virus); 1790 nM in assay [5] (Hepatitis C virus); 25 nM in assay [6] (Hepatitis C virus); 735 nM in assay [7] (Hepatitis C virus). Also, the EC50 came out at 35 nM in assay [8] (Hepatitis C virus), 240 nM in [9] (setting [12]), 14 nM in assay [10] (Hepatitis C virus) and 396 nM in [11] (setting [13]).

`CC[C@@H]1[C@@H]2CN(C(=O)[C@H](C(C)(C)C)NC(=O)O[C@@]3(C(F)(F)F)CCCC3CCCCCc3nc4ccc(OC)cc4nc3O2)[C@@H]1C(=O)N[C@]1(C(=O)NS(=O)(=O)C2(C)CC2)C[C@H]1C(F)F` (stereo partly drawn) [Example 10, (7S,10S,11S,12R)-7-tert-butyl-N-[(1R,2R)-2-(difluoromethyl)-1-{[(1-methylcyclopropyl)sulfonyl]carbamoyl}cyclopropyl]-11-ethyl-16-methoxy-5,8-dioxo-3aS-(trifluoromethyl)-1,2,3,3a,5,6,7,8,11,12,20,21,22,23,24,24a-hexadecahydro-10H-9,12-methanocyclopenta[18,19][1,10,3,6]dioxadiazacyclononadecino[11,12-b]quinoxaline-10-carboxamide] displayed a Ki in [1] of 0.52 nM. The EC50 turned out to be 30 nM in assay [2]; 22 nM in assay [3]; 49 nM in assay [4]; 978 nM in [5] (setting [14]); 26 nM in assay [6] (setting [15]); 37 nM in assay [8]. The results for the EC50 in assay [9] (setting [16]), in [10] and in [11] (setting [17]) were 131 nM, 10 nM and 493 nM, respectively.
